Broadly, the IC50 is the midpoint of a concentration-inhibition curve.

Each structure is given as a SMILES string.

For assay [1], the system named is skin cancer cell line, A431. Briefly: Inhibitory effect on growth of cancer cell line A431, SRB. It is filed as cell-based. The conditions noted are these: Homo sapiens, A-431, 72 h, overexpressed EGFR1 (HER-1). An outline of the steps:
(§1)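 Cells were cultured in DMEM with 10% FBS. Compounds were applied at 10 μM with 10-fold serial dilution to 10^−4, DMSO <1%, for 72 h at 37 °C. Cells were then TCA-fixed and stained with 0.4% SRB, and absorbance was read at 570 nm after solubilisation in 10 mM Tris base.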

The target of the next assay is VEGFR2 (KDR) (Homo sapiens (Human), UniProt P35968). Briefly: VEGFR2 (KDR) enzyme assay, fluorescence polarization. The class given is biochemical. The conditions noted are these: 5 μM ATP, poly(Glu, Tyr) substrate. An outline of the steps: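 Autophosphorylation read by fluorescence polarization: VEGFR2 (Proquinase) at 200 ng/10 μl with 5 μM ATP and 10 ng/ml poly(Glu,Tyr) 4:1, in 20 mM HEPES pH 7.4, 5 mM MgCl2, 2 mM MnCl2, 50 μM Na3VO4. Reaction 1 h at room temperature, EDTA stop, then anti-phosphotyrosine antibody/tracer for 30 min in the dark.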
(In general: Fluorescence polarisation rises when a labelled molecule tumbles more slowly, as on binding a larger partner.)

The subject of assay [2] is colon and rectal cancer cell line, SW-620. Briefly: Inhibitory effect on growth of cancer cell line SW-620, SRB. It is filed as cell-based. The conditions noted are these: Homo sapiens, 72 h, not having overexpressed EGFR and EGFR2. An outline of the steps:
as §1

Assay [3] concerns breast cancer cell line, SK-Br3. Kind of assay: Inhibitory effect on growth of cancer cell line SK-Br3, SRB. The class given is cell-based. Conditions: Homo sapiens, SK-BR-3, 72 h, overexpressed EGFR2 (HER-2). An outline of the steps: as §1
For assay [4], the system named is Human Umbilical Vein Endothelial Cell (HUVEC). Kind of assay: Inhibitory effect on growth of human umbilical vein endothelial cell (HUVEC), MTS. The class given is cell-based. Conditions: Homo sapiens, 96 h, 10 ng/ml VEGF, absorbance 490 nm.
The next assay concerns the target EGFR1 (HER-1) (Homo sapiens (Human), UniProt P00533). Briefly: EGFR1 (HER-1) enzyme assay, fluorescence polarization. The class given is biochemical. The conditions noted are these: 100 μM ATP, poly(Glu, Tyr) substrate.

VEGFR2 (KDR), sequence (P35968 20-1356): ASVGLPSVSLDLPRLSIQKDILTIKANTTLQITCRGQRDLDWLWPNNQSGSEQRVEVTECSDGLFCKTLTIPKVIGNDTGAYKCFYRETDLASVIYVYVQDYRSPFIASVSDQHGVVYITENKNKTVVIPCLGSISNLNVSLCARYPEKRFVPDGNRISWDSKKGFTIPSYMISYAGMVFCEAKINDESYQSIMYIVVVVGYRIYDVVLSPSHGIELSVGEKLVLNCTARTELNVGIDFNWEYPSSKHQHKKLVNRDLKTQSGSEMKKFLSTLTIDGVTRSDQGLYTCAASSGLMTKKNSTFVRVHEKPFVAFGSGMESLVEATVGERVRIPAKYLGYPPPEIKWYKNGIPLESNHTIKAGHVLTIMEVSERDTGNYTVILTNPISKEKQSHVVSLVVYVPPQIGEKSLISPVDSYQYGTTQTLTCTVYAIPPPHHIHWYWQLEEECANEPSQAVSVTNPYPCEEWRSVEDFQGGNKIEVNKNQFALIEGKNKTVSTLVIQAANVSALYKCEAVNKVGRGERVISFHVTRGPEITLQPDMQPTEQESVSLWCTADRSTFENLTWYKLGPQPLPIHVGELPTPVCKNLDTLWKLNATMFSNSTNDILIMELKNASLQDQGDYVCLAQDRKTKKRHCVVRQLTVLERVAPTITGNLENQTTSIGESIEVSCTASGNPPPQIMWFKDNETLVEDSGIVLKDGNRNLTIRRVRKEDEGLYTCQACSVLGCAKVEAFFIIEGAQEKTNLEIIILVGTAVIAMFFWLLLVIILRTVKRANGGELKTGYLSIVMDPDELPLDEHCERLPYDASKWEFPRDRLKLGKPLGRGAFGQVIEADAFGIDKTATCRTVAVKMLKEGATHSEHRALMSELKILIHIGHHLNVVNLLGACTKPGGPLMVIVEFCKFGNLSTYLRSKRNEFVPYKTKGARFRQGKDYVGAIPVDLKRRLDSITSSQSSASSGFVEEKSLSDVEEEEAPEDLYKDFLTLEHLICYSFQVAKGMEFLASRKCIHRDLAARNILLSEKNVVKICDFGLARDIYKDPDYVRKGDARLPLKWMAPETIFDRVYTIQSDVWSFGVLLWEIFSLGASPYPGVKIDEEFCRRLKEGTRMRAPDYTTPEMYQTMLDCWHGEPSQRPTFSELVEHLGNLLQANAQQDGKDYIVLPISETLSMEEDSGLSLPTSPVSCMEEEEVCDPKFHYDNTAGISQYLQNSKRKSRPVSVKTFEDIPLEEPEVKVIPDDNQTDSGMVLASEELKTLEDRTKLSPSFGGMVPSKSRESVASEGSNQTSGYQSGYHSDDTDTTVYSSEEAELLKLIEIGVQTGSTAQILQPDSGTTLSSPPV
EGFR1 (HER-1), sequence (P00533 25-1210): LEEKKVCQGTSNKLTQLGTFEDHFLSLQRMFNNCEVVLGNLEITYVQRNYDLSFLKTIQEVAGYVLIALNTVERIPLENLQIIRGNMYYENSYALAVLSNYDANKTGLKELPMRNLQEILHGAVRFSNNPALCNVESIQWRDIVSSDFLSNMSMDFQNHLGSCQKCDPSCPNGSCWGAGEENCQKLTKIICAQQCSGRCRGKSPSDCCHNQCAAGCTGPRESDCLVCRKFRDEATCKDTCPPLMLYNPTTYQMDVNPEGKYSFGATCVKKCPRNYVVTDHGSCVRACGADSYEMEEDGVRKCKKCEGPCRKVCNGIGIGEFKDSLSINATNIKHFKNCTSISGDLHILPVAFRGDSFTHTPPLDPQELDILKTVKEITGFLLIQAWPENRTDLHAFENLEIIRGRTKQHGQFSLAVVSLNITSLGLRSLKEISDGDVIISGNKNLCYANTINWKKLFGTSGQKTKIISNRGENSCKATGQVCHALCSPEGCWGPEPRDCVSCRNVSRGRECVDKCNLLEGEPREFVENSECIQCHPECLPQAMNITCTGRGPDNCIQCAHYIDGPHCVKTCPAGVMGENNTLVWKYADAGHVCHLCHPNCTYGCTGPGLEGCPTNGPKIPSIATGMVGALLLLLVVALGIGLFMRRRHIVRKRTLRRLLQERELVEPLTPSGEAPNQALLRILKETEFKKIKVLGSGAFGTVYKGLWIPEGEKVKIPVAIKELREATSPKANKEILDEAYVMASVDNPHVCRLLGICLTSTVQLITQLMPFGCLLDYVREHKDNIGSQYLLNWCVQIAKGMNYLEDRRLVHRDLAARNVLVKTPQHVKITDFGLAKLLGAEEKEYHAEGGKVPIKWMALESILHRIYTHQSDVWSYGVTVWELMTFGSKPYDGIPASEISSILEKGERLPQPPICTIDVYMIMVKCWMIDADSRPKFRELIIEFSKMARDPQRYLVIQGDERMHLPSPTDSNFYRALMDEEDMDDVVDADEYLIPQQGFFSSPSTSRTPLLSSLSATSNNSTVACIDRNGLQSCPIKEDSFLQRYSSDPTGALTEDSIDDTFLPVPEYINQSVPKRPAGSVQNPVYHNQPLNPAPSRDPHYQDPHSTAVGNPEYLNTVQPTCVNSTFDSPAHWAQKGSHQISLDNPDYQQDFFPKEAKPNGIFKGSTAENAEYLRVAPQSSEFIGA

`C=CC(=O)Nc1cc2c(Nc3ccc(Br)cc3F)ncnc2cc1OCCNC(=O)NC(C)C` [Example 37, N-{4-(4-bromo-2-fluoro-phenylamino)-7-[2-(3-isopropyl-ureido)-ethoxy]-quinazolin-6-yl}-acrylamide]: the IC50 in assay [1] is 31 nM; against VEGFR2 (KDR) it was 895 nM; in assay [2], 4540 nM; in assay [3], 65 nM; in assay [4], 682 nM; on EGFR1 (HER-1), 36 nM.

Turning to `C=CC(=O)Nc1cc2c(Nc3ccc(Br)cc3F)ncnc2cc1OCCNC(=O)NC(C)CC` (stereo not drawn) [Example 38, N-{4-(4-bromo-2-fluoro-phenylamino)-7-[2-(3-sec-butyl-ureido)-ethoxy]-quinazolin-6-yl}-acrylamide], the IC50 in assay [1] amounted to 21 nM; at VEGFR2 (KDR) it was 324 nM; in assay [2], 2580 nM; in assay [3] it was 245 nM; in assay [4], 367 nM; against EGFR1 (HER-1) it was 20 nM.

For `C=CNC(=O)NCCOc1cc2ncnc(Nc3ccc(Br)cc3F)c2cc1NC(=O)C=C` [Example 39, N-{4-(4-bromo-2-fluoro-phenylamino)-7-[2-(3-vinyl-ureido)-ethoxy]-quinazolin-6-yl}-acrylamide], the 50% inhibitory concentration (IC50) in assay [1] was 28 nM; against VEGFR2 (KDR), 264 nM; in assay [2], 4520 nM; in assay [3], 176 nM; in assay [4], 325 nM; against EGFR1 (HER-1), 29 nM.

On to `C=CCNC(=O)NCCOc1cc2ncnc(Nc3ccc(Br)cc3F)c2cc1NC(=O)C=C` [Example 40, N-[7-[2-(3-allyl-ureido)-ethoxy]-4-(4-bromo-2-fluoro-phenylamino)-quinazolin-6-yl]-acrylamide], for which the IC50 stood at 13 nM in assay [1]; 155 nM against VEGFR2 (KDR); 10000 nM in assay [2]; 166 nM in assay [3]; 268 nM in assay [4]; 19 nM at EGFR1 (HER-1).

Consider `C=CC(=O)Nc1cc2c(Nc3ccc(Br)c(Cl)c3F)ncnc2cc1OCCNC(=O)N1CCOCC1` [Example 41, morpholine-4-carboxylic acid {2-[6-acryloylamino-4-(4-bromo-3-chloro-2-fluoro-phenylamino)-quinazolin-7-yloxy]-ethyl}-amide], for which the IC50 in assay [1] is 46 nM; against VEGFR2 (KDR), 134 nM; in assay [2], 7860 nM; in assay [3], 53 nM; in assay [4], 221 nM; at EGFR1 (HER-1) it was 35 nM.

Turning to `C=CC(=O)Nc1cc2c(Nc3ccc(Br)cc3F)ncnc2cc1OCCN(C)C(C)=O` [Example 42, N-[7-[2-(acetyl-methyl-amino)-ethoxy]-4-(4-bromo-2-fluoro-phenylamino)-quinazolin-6-yl]-acrylamide], the IC50 in assay [1] stood at 63 nM; against VEGFR2 (KDR) it was 687 nM; in assay [2] it was 9560 nM; in assay [3], 142 nM; in assay [4], 786 nM; against EGFR1 (HER-1), 59 nM.

`C=CC(=O)Nc1cc2c(Nc3ccc(Br)cc3F)ncnc2cc1SCCNC(C)=O` [Example 43, N-[7-(2-acetylamino-ethylsulfanyl)-4-(4-bromo-2-fluoro-phenylamino)-quinazolin-6-yl]-acrylamide]: the IC50 worked out at 104 nM in assay [1]; 785 nM against VEGFR2 (KDR); 3670 nM in assay [2]; 4340 nM in assay [3]; 987 nM in assay [4]; 109 nM on EGFR1 (HER-1).

As for `C=CC(=O)Nc1cc2c(Nc3ccc(Br)cc3F)ncnc2cc1OCCNC(=O)COC` [Example 44, N-{4-(4-bromo-2-fluoro-phenylamino)-7-[2-(2-methoxy-acetylamino)-ethoxy]-quinazolin-6-yl}-acrylamide], the IC50 in assay [1] worked out at 16 nM; at VEGFR2 (KDR) it was 161 nM; in assay [2] it was 2320 nM; in assay [3], 98 nM; in assay [4], 265 nM; on EGFR1 (HER-1), 14 nM.

As to `C=CC(=O)Nc1cc2c(Nc3ccc(Br)cc3F)ncnc2cc1OCCNC(=O)CO` [Example 45, N-{4-(4-bromo-2-fluoro-phenylamino)-7-[2-(2-hydroxy-acetylamino)-ethoxy]-quinazolin-6-yl}-acrylamide], the IC50 came to 37 nM in assay [1]; 325 nM on VEGFR2 (KDR); 10000 nM in assay [2]; 234 nM in assay [3]; 350 nM in assay [4]; 32 nM at EGFR1 (HER-1).

For the molecule `C=CC(=O)Nc1cc2c(Nc3ccc(Br)cc3F)ncnc2cc1OCCNC(=O)CSC` [Example 46, N-{4-(4-bromo-2-fluoro-phenylamino)-7-[2-(2-methylsulfanyl-acetylamino)-ethoxy]-quinazolin-6-yl}-acrylamide], the IC50 in assay [1] is 35 nM; at VEGFR2 (KDR), 635 nM; in assay [2], 7520 nM; in assay [3], 198 nM; in assay [4], 656 nM; against EGFR1 (HER-1), 39 nM.

As for `C=CC(=O)Nc1cc2c(Nc3ccc(Br)cc3F)ncnc2cc1OCCNC(=O)CS(C)(=O)=O` [Example 47, N-{4-(4-bromo-2-fluoro-phenylamino)-7-[2-(2-methanesulfonyl-acetylamino)-ethoxy]-quinazolin-6-yl}-acrylamide], the IC50 in assay [1] was determined as 27 nM; on VEGFR2 (KDR), 209 nM; in assay [2], 9570 nM; in assay [3] it was 67 nM; in assay [4] it was 269 nM; against EGFR1 (HER-1), 24 nM.

Turning to `C=CC(=O)Nc1cc2c(Nc3ccc(Br)cc3F)ncnc2cc1OCCNC(=O)C(C)C` [Example 48, N-[4-(4-bromo-2-fluoro-phenylamino)-7-(2-isobutyrylamino-ethoxy)-quinazolin-6-yl]-acrylamide], the IC50 in assay [1] was 114 nM; on VEGFR2 (KDR) it was 698 nM; in assay [2], 10000 nM; in assay [3] it was 70 nM; in assay [4], 697 nM; against EGFR1 (HER-1), 128 nM.

`C=CC(=O)Nc1cc2c(Nc3ccc(Br)cc3F)ncnc2cc1OCCNC(=O)C(=C)C` [Example 49, N-{2-[6-acryloylamino-4-(4-bromo-2-fluoro-phenylamino)-quinazolin-7-yloxy]-ethyl}-2-methyl-acrylamide]: the IC50 in assay [1] was found to be 62 nM; on VEGFR2 (KDR) it was 854 nM; in assay [2], 4590 nM; in assay [3], 243 nM; in assay [4], 964 nM; on EGFR1 (HER-1) it was 69 nM.

Consider `C=CC(=O)Nc1cc2c(Nc3ccc(Br)cc3F)ncnc2cc1OCCNC(=O)C=CC` [Example 50, but-2-enoic acid {2-[6-acryloylamino-4-(4-bromo-2-fluoro-phenylamino)-quinazolin-7-yloxy]-ethyl}-amide], for which the IC50 stood at 15 nM in assay [1]; 66 nM on VEGFR2 (KDR); 9570 nM in assay [2]; 71 nM in assay [3]; 101 nM in assay [4]; 19 nM on EGFR1 (HER-1).

For `C=CC(=O)Nc1cc2c(Nc3ccc(Br)cc3F)ncnc2cc1OCCNC(=O)C=CCC` [Example 52, pent-2-enoic acid {2-[6-acryloylamino-4-(4-bromo-2-fluoro-phenylamino)-quinazolin-7-yloxy]-ethyl}-amide], the IC50 in assay [1] came to 37 nM; against VEGFR2 (KDR) it was 354 nM; in assay [2] it was 10000 nM; in assay [3], 84 nM; in assay [4], 350 nM; on EGFR1 (HER-1) it was 36 nM.

For `C=CC(=O)Nc1cc2c(Nc3ccc(Br)cc3F)ncnc2cc1OCCNC(=O)C=CCN(C)C` [Example 53, 4-dimethylamino-but-2-enoic acid {2-[6-acryloylamino-4-(4-bromo-2-fluoro-phenylamino)-quinazolin-7-yloxy]-ethyl}-amide], the IC50 in assay [1] came to 12 nM; on VEGFR2 (KDR) it was 875 nM; in assay [2], 4760 nM; in assay [3], 223 nM; in assay [4], 964 nM; against EGFR1 (HER-1), 16 nM.

In the case of `C=CC(=O)Nc1cc2c(Nc3ccc(Br)c(Cl)c3F)ncnc2cc1OCCNC(=O)NC(C)(C)C` [Example 54, N-{4-(4-bromo-3-chloro-2-fluoro-phenylamino)-7-[2-(3-t-butyl-ureido)-ethoxy]-quinazolin-6-yl}-acrylamide], the IC50 in assay [1] came to 59 nM; at VEGFR2 (KDR), 423 nM; in assay [2], 10000 nM; in assay [3], 456 nM; in assay [4], 568 nM; at EGFR1 (HER-1) it was 45 nM.

On to `C=CC(=O)Nc1cc2c(Nc3ccc(Br)cc3F)ncnc2cc1OCCNCC(C)=O` [Example 55, N-{4-(4-bromo-2-fluoro-phenylamino)-7-[2-(2-oxo-propylamino)-ethoxy]-quinazolin-6-yl}-acrylamide], for which the half-maximal inhibitory concentration (IC50) in assay [1] came out at 426 nM; against VEGFR2 (KDR) it was 471 nM; in assay [2], 4540 nM; in assay [3] it was 437 nM; in assay [4] it was 359 nM; against EGFR1 (HER-1) it was 589 nM.

For the origin of these results see patent US8846699B2, “Quinazoline derivatives as a multiplex inhibitor and method for the preparation thereof” (Hanmi Pharm. Co., Ltd., priority 2005, dated 2014).
